Data set [1] has as its system plasma lipids and lipoproteins. Description: Phase 1 study NCT0456124 (Example 2): lipoprotein profiling by NMR and lipidomic profiling by UHPLC-MS. It is filed as in vivo, human. As to the method:
To test the lipid-lowering effects of pemvidutide, an analysis of Phase I clinical trial (NCT0456124) data was carried out. The subjects with overweight/obesity (BMI 25-40 kg/m^2) were randomized at 1 site in Australia (NCT0456124). Subjects were randomized 4:1 pemvidutide:placebo, with placebos pooled. […] Lipoprotein and glycoprotein profiling covering 33 lipoprotein related parameters was performed by ^1H-NMR on fasting plasma samples obtained at Day −1 (baseline), Day 43, and Day 84 from the 34 subjects who completed NCT0456124. Lipidomic profiling covering 600 lipid species was performed by ultra-high performance liquid chromatography-mass spectrometry on fasting plasma samples obtained at Day −1 (baseline), Day 43, and Day 84 from the 34 subjects who completed NCT0456124. For the lipid profiling, plasma fractionation was performed either using methanol to extract fatty acyls, bile acids, steroids, and lyso-glycerophospholipids, or using a chloroform/methanol mix to extract glycerolipids, cholesteryl esters, sphingolipids, and glycerophospholipids. Lipid classification followed the classification system proposed by Fahy et al. (J. Lipid Res. 2005; 46:839-861) and the LIPID MAPS initiative (http://www.lipidmaps.org) (see FIG. 8).
The color code represents the log 2 (robust fold-change) with blue colors denoting reduced lipoproteins (negative fold-changes) and red colors denoting increased lipoproteins (positive fold-changes).
Given the observed changes in the total cholesterol, triglycerides and lipoproteins, an evaluation of the serum lipid composition covering 600 lipid species at Day −1 (baseline), Day 43, and Day 84 from the 34 subjects who completed NCT0456124 was performed. Results are presented in FIG. 10 as log 2 pairwise fold change with blue colors denoting a reduction in the lipid relative to baseline, and red an increase. The grey/black bars indicate significant p-values of Wilcoxon test.
The horizontal dashed line represents the lower limit of significance, while the vertical lines show a fold-change from baseline of ±0.75 on the log 2 scale.

Data set [2] can be described thus: Phase 1b 24-week NAFLD study (Example 3): safety. In kind it is in vivo, human. The settings on record: for serious and severe AE observed: unrelated to study medication. The source says:
Provided herein is disclosure of a 12-week extension study of the study provided in Example 1, providing a 24-week a Phase 1b, randomized, double-blind, placebo-controlled study to assess the effects of pemvidutide (also termed herein as ALT-801), the safety of pemvidutide and effects on weight loss, hepatic fat fraction, anthropometric parameters, lipid metabolism, as well as inflammatory, fibrosis and other markers in diabetic and non-diabetic (type 2 diabetes) overweight and obese (BMI≥28.0 kg/m^2) subjects with NAFLD (defined as liver fat content (LFC) by MRI-PDFF ≥10%; absence of significant fibrosis, defined as FibroScan® LSM ≤10 kPa), alanine aminotransferase (ALT) and aspartate aminotransferase (AST) laboratory values of ≤75 IU/L and HbA1c <9.5. Men and women aged 18-65 years were studied. Diabetic subjects were defined as those that have undergone stable dose (≥3 months) metformin or SLGT-2 therapy and no use of insulin, sulfonylureas, DPP-4, GLP-1 treatment; Ninety-four (94) subjects were enrolled in the initial 12-week Phase 1b NAFLD trial and 83 subjects who completed were invited to receive a total of 12 additional weeks of blinded treatment. Of those subjects, 66 consented to rollover, of which 64 were eligible to participate.
The primary endpoint of this study was a reduction in liver fat content (LFC) by MRI-PDFF at Week 24 compared to Week 0 (zero). Key secondary endpoints include percent (%) weight loss at Week 24 compared to Week 0 (zero), and liver inflammation by alanine aminotransferase (ALT) levels and corrected T1 (cT1) imaging at Week 24 as compared to Week 0 (zero). Adverse events (AEs), including serious and severe AEs, AEs leading to discontinuation, GI tolerability, vital signs, and glycemic control including fasting glucose and HbA1c levels were also measured.

Data on one compound can be found in US20240269238A1, “Therapeutic Regimens and Methods for Reducing Body Weight in a Subject with Fatty Liver Disease using a GLP-1R and GCGR Agonist” (Spitfire Pharma LLC, priority 2022, published 2024).

Take `CC[C@H](C)[C@H](NC(=O)[C@H](Cc1ccccc1)NC(=O)[C@H](CCC(=O)O)NC(=O)[C@@H]1CCCCNC(=O)CC[C@H](NC(=O)[C@H](CC(=O)O)NC(=O)[C@H](CC(C)C)NC(=O)[C@H](Cc2ccc(O)cc2)NC(=O)[C@H](CCCCN)NC(=O)[C@H](CO)NC(=O)[C@H](Cc2ccc(O)cc2)NC(=O)[C@H](CC(=O)O)NC(=O)[C@H](CO)NC(=O)[C@@H](NC(=O)[C@H](Cc2ccccc2)NC(=O)[C@@H](NC(=O)CNC(=O)[C@H](CCC(N)=O)NC(=O)C(C)(C)NC(=O)[C@@H](N)Cc2c[nH]cn2)[C@@H](C)O)[C@H](C)O)C(=O)N[C@@H](CCCCNC(=O)C2O[C@@H](OCCCCCCCCCCCCCCCCCC(=O)O)C(O)C(O)[C@@H]2O)C(=O)N[C@@H](C)C(=O)N[C@@H](C)C(=O)N1)C(=O)N[C@@H](CCC(N)=O)C(=O)N[C@@H](Cc1c[nH]c2ccccc12)C(=O)N[C@@H](CC(C)C)C(=O)N[C@@H](CC(C)C)C(=O)N[C@@H](CCC(N)=O)C(=O)N[C@H](C(N)=O)[C@@H](C)O` (some centres unmarked) [ALT-801, Pemvidutide]: in data set [1] (1.8 mg), the “phosphatidyl-ethanolamine (PE) glycerophospholipids level” value is reported as “significantly reduced atherosclerotic plaque forming phosphatidyl-ethanolamine (PE) glycerophospholipids level” and the “pro-atherogenic lyso-PC levels” value is “significantly reduced pro-atherogenic lyso-PC levels”. The “number of VLDL and LDL particles and of smaller HDL particles (2D-NMR)” value in data set [1] (Day 43 and Day 84 vs Day -1) is listed as “tend to be reduced”. In addition, the “serum lipid levels (glycerolipids, glycerophospholipids, sphingolipids)” value in data set [1] (within 12 weeks of treatment) is given as “significantly reduced serum lipid levels”. In addition, in data set [2] (1.2 mg), the “serious and severe AE observed” value is reported as “Salmonella infection”. The “serious and severe AE observed” value in data set [2] (1.8 mg) is reported as “hypertension >3 weeks post last dose of study medication”. In data set [2] (24 weeks), the “number of adverse events leading to treatment discontinuation” value was “low across the treatment group”; the “overall safety and tolerability” value is “safe and tolerable”; the “severity of gastrointestinal-related adverse events (nausea, vomiting, diarrhea, constipation)” value is recorded as “mild to moderate”; the “significant ALT elevations” value is listed as “No significant ALT elevations were reported”. The “number of serious or severe adverse events” value in data set [2] (treatment groups, 24 weeks) was “low and comparable to the placebo group”.
